Test systems include SK-MEL-5 melanoma; SNB-75 CNS; TK-10 renal; NCI-H522 lung; ACHN renal; K-562 leukemia; SW-620 colon; SK-OV-3 ovarian; RPMI-8226 leukemia; COLO 205 colon; OVCAR-3 ovarian; HL-60(TB) leukemia; MCF7 breast; MDA-MB-231 breast.
Assay in all cases: NCI-60 cell line screen, 48 h

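48-hour exposure; five concentrations; linearly interpolated endpoints. TGI denotes the concentration required for complete inhibition of growth.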

The text below walks through data of PubChem BioAssay (NCI).

`CCO/N=C(/N)c1ncn(Cc2ccccc2)c1NCC(OCC)OCC`: the TGI in the test with SK-MEL-5 melanoma, in the test with SNB-75 CNS, in the test with TK-10 renal, in the test on NCI-H522 lung, in the test on ACHN renal and in the test on K-562 leukemia was > 100 µM in each case. For the same compound, the TGI in the test on SW-620 colon, with SK-OV-3 ovarian, in the test on RPMI-8226 leukemia, in the test on COLO 205 colon and in the test on OVCAR-3 ovarian was > 100 µM each time.

As to `O=C1NC2OCC(O)C(O)C2O1` (stereo unspecified), the TGI in the test on SK-MEL-5 melanoma, with SNB-75 CNS, in the test on TK-10 renal, with NCI-H522 lung, with ACHN renal and in the test with K-562 leukemia was > 100 µM throughout. Further, the TGI in the test with SW-620 colon, with SK-OV-3 ovarian, in the test with HL-60(TB) leukemia, in the test with COLO 205 colon and with OVCAR-3 ovarian was > 100 µM throughout.

Regarding `C/C(=C1/CCC/C(=C(/C)c2ccccc2)C1=O)c1ccccc1`, the TGI is 47.8 µM in the test on SK-MEL-5 melanoma; > 100 µM in the test with SNB-75 CNS; > 100 µM in the test on TK-10 renal; > 100 µM in the test on NCI-H522 lung; > 100 µM in the test with ACHN renal; 47.1 µM in the test on K-562 leukemia. In addition, the TGI is > 100 µM with SW-620 colon; > 100 µM in the test with SK-OV-3 ovarian; 27.9 µM in the test on HL-60(TB) leukemia; > 100 µM in the test on RPMI-8226 leukemia; > 100 µM with COLO 205 colon; > 100 µM with OVCAR-3 ovarian.

For the compound `Cc1ccc(S(=O)(=O)OC(c2ccc(Cl)cc2Cl)C2OC(=O)c3ccccc32)cc1` (stereo unspecified), the TGI with SK-MEL-5 melanoma, in the test with TK-10 renal, with NCI-H522 lung, in the test on ACHN renal, in the test with K-562 leukemia and in the test with SW-620 colon was > 100 µM throughout. Further, the TGI in the test on HL-60(TB) leukemia is 86.1 µM; in the test with RPMI-8226 leukemia, > 100 µM; in the test on COLO 205 colon, > 100 µM; with OVCAR-3 ovarian, > 100 µM.

In the case of `CCOC(=O)C(Cc1cn(S(=O)(=O)c2ccccc2)c2ccccc12)(NC(C)=O)C(=O)OCC`, the TGI was 33.7 µM with SK-MEL-5 melanoma; 33.3 µM with SNB-75 CNS; > 100 µM in the test with TK-10 renal; 52.5 µM with NCI-H522 lung; > 100 µM in the test with ACHN renal; > 100 µM with K-562 leukemia. In addition, the TGI in the test on SW-620 colon was > 100 µM; with HL-60(TB) leukemia, 41.5 µM; with RPMI-8226 leukemia, 44.7 µM; with COLO 205 colon, 60.8 µM; in the test on OVCAR-3 ovarian it was > 100 µM.

For the compound `O=C1O/C(=C(/Cl)c2cccc3ccccc23)c2ccccc21`, the TGI in the test on SK-MEL-5 melanoma is > 100 µM; in the test on SNB-75 CNS it was 55.2 µM; in the test on TK-10 renal, > 100 µM; with NCI-H522 lung, > 100 µM; in the test on MCF7 breast, > 100 µM; in the test with K-562 leukemia it was > 100 µM. Moreover, the TGI in the test on SW-620 colon, in the test on SK-OV-3 ovarian, in the test on HL-60(TB) leukemia, in the test on RPMI-8226 leukemia, in the test on COLO 205 colon and with OVCAR-3 ovarian was > 100 µM throughout.

With `CC(=O)OC1(C)C=CC(=O)C=C1`, the TGI with MDA-MB-231 breast was 49.1 µM; in the test with SK-MEL-5 melanoma, > 100 µM; in the test on SNB-75 CNS, > 100 µM; with TK-10 renal, 49.8 µM; in the test with NCI-H522 lung it was 24.2 µM; in the test on ACHN renal, 34.7 µM. Besides, the TGI with MCF7 breast, with K-562 leukemia, in the test on SW-620 colon, in the test on SK-OV-3 ovarian, with HL-60(TB) leukemia and with RPMI-8226 leukemia was > 100 µM each time. Also, the TGI in the test on COLO 205 colon and in the test with OVCAR-3 ovarian was > 100 µM in each case.

Consider `COc1ccc(CNc2nc3cc(C(F)(F)F)ccc3nc2C)cc1OC`, for which the TGI in the test on SK-MEL-5 melanoma is 31.3 µM; with SNB-75 CNS it was 61.4 µM; in the test with TK-10 renal it was 87.8 µM; in the test on NCI-H522 lung, 92.7 µM; in the test with K-562 leukemia, > 100 µM; in the test with SW-620 colon it was > 100 µM. Also, the TGI in the test with SK-OV-3 ovarian is > 100 µM; in the test with HL-60(TB) leukemia it was 50.6 µM; in the test on RPMI-8226 leukemia, 97 µM; with COLO 205 colon, > 100 µM; with OVCAR-3 ovarian, > 100 µM.

Regarding `O=C1NCCCNCCCNCCCNC(=O)c2cccc1n2`, the TGI in the test on MDA-MB-231 breast, with SK-MEL-5 melanoma, in the test on SNB-75 CNS, in the test on TK-10 renal, in the test on NCI-H522 lung and with ACHN renal was > 100 µM in each case. Also, the TGI in the test with K-562 leukemia, in the test on SW-620 colon, in the test with SK-OV-3 ovarian, in the test on RPMI-8226 leukemia, in the test with COLO 205 colon and in the test on OVCAR-3 ovarian was > 100 µM throughout.

As to `COc1ccc(-c2cc(=O)c3ccccc3[nH]2)c(OC)c1`, the TGI in the test with SNB-75 CNS, with TK-10 renal, in the test on NCI-H522 lung, with ACHN renal, in the test on K-562 leukemia and with SW-620 colon was > 100 µM each time. The TGI in the test with SK-OV-3 ovarian, in the test with HL-60(TB) leukemia, in the test with RPMI-8226 leukemia, in the test with COLO 205 colon and in the test with OVCAR-3 ovarian was > 100 µM in each case.

For the compound `CC(C)N1CN(C(C(=O)N[C@@H]2C(=O)N3C2SC(C)(C)C3C(=O)O)c2ccccc2)CSC1=S` (stereo partly specified), the TGI in the test on SK-MEL-5 melanoma was > 100 µM; with SNB-75 CNS, > 100 µM; with TK-10 renal it was > 100 µM; with NCI-H522 lung, 72.1 µM; with ACHN renal it was > 100 µM; in the test with K-562 leukemia, > 100 µM. Moreover, the TGI in the test on SK-OV-3 ovarian, in the test with HL-60(TB) leukemia, with RPMI-8226 leukemia, in the test with COLO 205 colon and in the test with OVCAR-3 ovarian was > 100 µM each time.

On to `N#Cc1nc(C2=C(Cl)c3ccccc3OC2)[nH]c1C#N`, for which the TGI is 51.1 µM with SK-MEL-5 melanoma; > 100 µM in the test with TK-10 renal; > 100 µM with ACHN renal; 70 µM in the test on MCF7 breast; > 100 µM in the test with K-562 leukemia; > 100 µM in the test with SW-620 colon. The TGI is > 100 µM in the test on SK-OV-3 ovarian, 70.7 µM in the test on HL-60(TB) leukemia, 61 µM in the test on RPMI-8226 leukemia and 70.9 µM in the test on OVCAR-3 ovarian.
